Laboratory results taken from the NIST ThermoML archive (doi:10.1021/je500513b).

Assay: mn = molality of the nth substance listed, in mol/kg
Details: for surface tension liquid-gas: Pendant drop shape; for electrical conductivity: 100 kPa, Liquid, Mettler Toledo inLab 710

CCCCCCCCCCCCCC[N+](C)(C)CCCC[N+](C)(C)CCCCCCCCCCCCCC.[Br-].[Br-] + O
Details	electrical conductivity, 298.15 K [S/m]	electrical conductivity, 303.15 K [S/m]	electrical conductivity, 308.15 K [S/m]	electrical conductivity, 313.15 K [S/m]	electrical conductivity, 318.15 K [S/m]	electrical conductivity, 323.15 K [S/m]	surface tension liquid-gas, 298.15 K [mN/m]
m1 = 1e-05	–	–	–	–	–	–	58.66
m1 = 2e-05	–	–	–	–	–	–	56.16
m1 = 3e-05	–	–	–	–	–	–	51.87
m1 = 4e-05	–	–	–	–	–	–	50.69
m1 = 5e-05	–	–	–	–	–	–	49.28
m1 = 6e-05	–	–	–	–	–	–	47.86
m1 = 7e-05	–	–	–	–	–	–	45.48
m1 = 8e-05	–	–	–	–	–	–	44.02
m1 = 9e-05	–	–	–	–	–	–	43.09
m1 = 0.0001	–	–	–	–	–	–	42.13
m1 = 0.000111	0.00256	–	0.00315	0.00337	–	0.00418	–
m1 = 0.000118	0.0027	0.00296	0.00332	0.00354	0.00387	0.00442	–
m1 = 0.00012	–	–	–	–	–	–	39.63
m1 = 0.000125	0.00286	0.00313	0.00351	0.00375	0.00411	0.00465	–
m1 = 0.000133	0.003	0.00333	0.00371	0.00401	0.00436	0.0049	–
m1 = 0.00014	–	–	–	–	–	–	39.01
m1 = 0.000143	0.00321	0.00354	0.00392	0.00426	0.00463	0.00514	–
m1 = 0.00015	0.00333	0.00365	0.00407	0.00448	0.00486	0.00538	–
m1 = 0.000158	0.00344	0.00377	0.00423	0.00468	0.005	0.00563	–
m1 = 0.000167	0.00354	0.00391	0.00442	0.00491	0.00524	0.00588	–
m1 = 0.00017	–	–	–	–	–	–	38.87
m1 = 0.000176	0.00364	0.00405	0.00458	0.00514	0.00548	0.0062	–
m1 = 0.000188	0.00373	0.00418	0.00475	0.0054	0.00576	0.00653	–
m1 = 0.000197	0.00382	0.00427	0.00487	0.00557	0.00593	0.00682	–
m1 = 0.0002	–	–	–	–	–	–	38.31
m1 = 0.000207	0.0039	0.00436	0.005	0.00574	0.00612	0.00712	–
m1 = 0.000218	0.00399	0.00447	0.00514	0.00588	0.00632	0.00745	–
m1 = 0.000231	0.00409	0.00457	0.00529	0.00606	0.00655	0.00772	–
m1 = 0.00024	0.00416	0.00465	0.00539	0.00617	0.00667	0.00786	–
m1 = 0.00025	0.00422	0.00473	0.00549	0.00628	0.0068	0.00805	–
m1 = 0.000261	0.0043	0.00482	0.0056	0.00641	0.00694	0.00823	–
m1 = 0.000273	0.00438	0.00489	0.00572	0.00652	0.00708	0.00839	–
m1 = 0.000286	0.00448	0.00499	0.00584	0.00667	0.00724	0.00858	–
m1 = 0.0003	0.00459	0.00512	0.00597	0.00681	0.0074	0.00877	37.21

O [water] + CCCCCCCCCCCCCC[N+](C)(C)CCC[N+](C)(C)CCCCCCCCCCCCCC.[Br-].[Br-]
Details	surface tension liquid-gas [mN/m]
298.15 K, m2 = 0	71.98

O [water] + CCCCCCCCCCCCCC[N+](C)(C)CCCC[N+](C)(C)CCCCCCCCCCCCCC.[Br-].[Br-]
Details	surface tension liquid-gas [mN/m]
298.15 K, m2 = 0	71.98

O [water] + CCCCCCCCCCCCCC[N+](C)(C)CCCCCC[N+](C)(C)CCCCCCCCCCCCCC.[Br-].[Br-]
Details	surface tension liquid-gas [mN/m]
298.15 K, m2 = 0	71.98

CCCCCCCCCCCCCC[N+](C)(C)CCC[N+](C)(C)CCCCCCCCCCCCCC.[Br-].[Br-] + O
Details	electrical conductivity, 298.15 K [S/m]	electrical conductivity, 303.15 K [S/m]	electrical conductivity, 308.15 K [S/m]	electrical conductivity, 313.15 K [S/m]	electrical conductivity, 318.15 K [S/m]	electrical conductivity, 323.15 K [S/m]	surface tension liquid-gas, 298.15 K [mN/m]
m1 = 1e-05	–	–	–	–	–	–	57.45
m1 = 2e-05	–	–	–	–	–	–	53.65
m1 = 3e-05	–	–	–	–	–	–	50.48
m1 = 4e-05	–	–	–	–	–	–	47.51
m1 = 5e-05	–	–	–	–	–	–	45.48
m1 = 6e-05	–	–	–	–	–	–	42.44
m1 = 7e-05	–	–	–	–	–	–	40.27
m1 = 8e-05	–	–	–	–	–	–	38.27
m1 = 9e-05	–	–	–	–	–	–	37
m1 = 9.3e-05	0.00212	–	0.0026	0.00309	0.00331	0.00348	–
m1 = 9.8e-05	0.00224	0.00251	0.00274	0.00324	0.00345	0.00363	–
m1 = 0.0001	–	–	–	–	–	–	35.52
m1 = 0.000104	0.00236	0.00267	0.00288	0.00343	0.00361	0.00382	–
m1 = 0.000111	0.0025	0.00283	0.00302	0.00364	0.00382	0.004	–
m1 = 0.000119	0.00264	0.003	0.00323	0.00382	0.00404	0.00422	–
m1 = 0.00012	–	–	–	–	–	–	34.27
m1 = 0.000125	0.00274	0.00311	0.00335	0.00391	0.0042	0.00441	–
m1 = 0.000132	0.00285	0.00324	0.0035	0.00407	0.00435	0.00462	–
m1 = 0.000139	0.00294	0.00337	0.00367	0.00423	0.00454	0.00486	–
m1 = 0.00014	–	–	–	–	–	–	34.18
m1 = 0.000147	0.00303	0.00351	0.00382	0.00441	0.00478	0.00512	–
m1 = 0.000156	0.00311	0.00364	0.00398	0.00463	0.00506	0.00542	–
m1 = 0.000164	0.00318	0.00373	0.00411	0.00479	0.00528	0.00565	–
m1 = 0.00017	–	–	–	–	–	–	34.06
m1 = 0.000172	0.00325	0.00381	0.00421	0.00497	0.0055	0.00593	–
m1 = 0.000182	0.00331	0.0039	0.00434	0.00513	0.00572	0.0062	–
m1 = 0.000192	0.00338	0.00399	0.00448	0.00532	0.00599	0.00651	–
m1 = 0.0002	0.00343	0.00405	0.00455	0.00542	0.00614	0.00669	33.81
m1 = 0.000208	0.00348	0.00412	0.00464	0.00552	0.00628	0.00688	–
m1 = 0.000217	0.00352	0.00418	0.00471	0.00564	0.00642	0.00704	–
m1 = 0.000227	0.00358	0.00426	0.00479	0.00574	0.00656	0.0072	–
m1 = 0.000238	0.00365	0.00434	0.00488	0.00582	0.0067	0.00737	–
m1 = 0.00025	0.00372	0.00443	0.00498	0.00594	0.00684	0.00754	–
m1 = 0.0003	–	–	–	–	–	–	33.92

O [water] + CCCCCCCCCCCC[N+](C)(C)CCCCCC[N+](C)(C)CCCCCCCCCCCC.[Br-].[Br-]
Details	surface tension liquid-gas [mN/m]
298.15 K, m2 = 0	71.98

O [water] + CCCCCCCCCCCC[N+](C)(C)CCC[N+](C)(C)CCCCCCCCCCCC.[Br-].[Br-]
Details	surface tension liquid-gas [mN/m]
298.15 K, m2 = 0	71.98

CCCCCCCCCCCC[N+](C)(C)CCC[N+](C)(C)CCCCCCCCCCCC.[Br-].[Br-] + O
Details	electrical conductivity, 298.15 K [S/m]	electrical conductivity, 303.15 K [S/m]	electrical conductivity, 308.15 K [S/m]	electrical conductivity, 313.15 K [S/m]	electrical conductivity, 318.15 K [S/m]	electrical conductivity, 323.15 K [S/m]	surface tension liquid-gas, 298.15 K [mN/m]
m1 = 0.0001	–	–	–	–	–	–	60.28
m1 = 0.0002	–	–	–	–	–	–	51.37
m1 = 0.0004	–	–	–	–	–	–	41.67
m1 = 0.00057	0.0117	0.0131	–	0.0152	0.0174	–	–
m1 = 0.00059	–	–	–	–	–	0.0191	–
m1 = 0.0006	–	–	–	–	–	–	36.01
m1 = 0.00061	0.0126	0.0139	–	0.0168	0.0186	–	–
m1 = 0.00063	–	–	–	–	–	0.0203	–
m1 = 0.00064	0.0132	0.0146	0.0159	0.0176	0.0199	–	–
m1 = 0.00067	0.0138	0.0152	0.0168	0.0186	0.0209	0.0218	–
m1 = 0.0007	0.0144	0.0159	0.0176	0.0197	0.0219	0.0229	33.17
m1 = 0.00074	0.0151	0.0168	0.0184	0.0207	0.0231	0.0241	–
m1 = 0.00077	0.0156	0.0172	0.0191	–	–	–	–
m1 = 0.00079	–	–	–	0.0217	0.0245	0.0256	–
m1 = 0.0008	0.0161	0.0178	0.0196	–	–	–	32.87
m1 = 0.00083	0.0165	0.0185	0.0203	0.0229	0.0253	0.0272	–
m1 = 0.00085	–	–	–	–	–	–	32.79
m1 = 0.00087	0.0168	0.0191	0.021	0.0237	0.0262	0.0282	–
m1 = 0.0009	–	–	–	–	–	–	32.84
m1 = 0.00091	0.0171	0.0195	0.0216	0.0245	0.0271	0.0293	–
m1 = 0.00095	0.0175	0.02	0.0223	0.0254	0.028	0.0305	–
m1 = 0.001	0.0179	0.0205	0.0228	0.0262	0.0289	0.0319	32.76
m1 = 0.00105	0.0183	0.0209	0.0234	0.027	0.0299	0.0334	–
m1 = 0.0011	–	–	–	–	–	–	32.75
m1 = 0.00111	0.0187	0.0212	0.024	0.0277	0.0308	0.0349	–
m1 = 0.00118	0.0191	0.0217	0.0244	0.0285	0.0318	0.036	–
m1 = 0.0012	–	–	–	–	–	–	32.81
m1 = 0.00125	0.0195	0.0221	0.025	0.0293	0.0327	0.0374	–
m1 = 0.00134	0.0199	0.0225	0.0257	0.0301	0.0335	0.0384	–
m1 = 0.00143	0.0203	0.0229	0.0264	0.031	0.0347	0.0394	–
m1 = 0.0015	–	–	–	–	–	–	32.59
m1 = 0.00154	0.0208	0.0235	0.027	0.0319	0.0357	0.0404	–
m1 = 0.0016	0.0211	0.0237	–	–	–	0.0413	–
m1 = 0.00163	–	–	0.0277	–	–	–	–
m1 = 0.00167	0.0214	0.0242	–	0.0327	0.037	0.042	–
m1 = 0.0017	–	–	0.028	–	–	–	–
m1 = 0.00174	0.0217	0.0247	–	0.0331	0.0376	0.0427	–
m1 = 0.00178	–	–	0.0285	–	–	–	–
m1 = 0.00182	0.0221	0.0251	–	0.0336	0.0383	0.0434	–
m1 = 0.00186	–	–	0.0291	–	–	–	–
m1 = 0.00191	0.0225	0.0256	–	0.0343	0.039	0.044	–
m1 = 0.002	0.023	0.0263	0.0301	0.0349	0.0399	0.0451	32.62
